One series concerns hESCs (H9). Conditions: for cytotoxic effect (LDH release) in hESCs: 2.5 μM, 24 hours, vs DMSO; for LDH assay positive, hESCs: Table 1. Here is the method: (§1) The hESC line H9 was purchased from WiCells (Madison, WI, USA)^27. Another hESC line, HUES6, was kindly provided by Dr. Douglas A. Melton (Harvard University, Boston, MA, USA)^28. Cells were maintained on the feeder cells and cultured in Dulbecco's modified Eagle's medium (DMEM)/F12 supplemented with 20% knockout serum replacement, 2 mM L-glutamine, 1% nonessential amino acids, 4 ng/mL human bFGF, and 0.1 mM 2-mercaptoethanol. For the feeder cells culture, C57BL/6 mouse embryonic fibroblasts (MEF) were cultured in the DMEM with 10% FBS and treated cells with 0.01 mg/ml mitomycin C 2-6 hours for inactivation. For the feeder-free culture, hESCs were seeded on the Matrigel Matrix (BD Biosciences, San Jose, CA, USA) coated culture plates and maintained by conditioned medium of MEF (C57BL/6). hBMMSCs were cultured in mesenPRO RS™ kit (Life Technologies, Camarillo, CA, USA). All cells were cultured in a humidified atmosphere containing 5% CO2 at 37° C.
(§2) The supernatants of cells treated with digoxin […], lanatoside C 2.5 μm, or DMSO solvent control for 24 hours were harvested. The released LDH was measured using CytoTox 96 […] assay according to the manufacture's instruction (Promega, Southampton, UK). The supernatants and reagents were incubated at room temperature for 20 minutes and then the reaction was stopped by Stop Solution. The absorbance at 490 nm was measured using a plate-reading spectrophotometer (Benchmark Plus Microplate Spectrophotometer System, BIO-RAD, CA, USA).
A general note: LDH leaks from cells whose membrane has failed.

Series [1] relates to human bone marrow mesenchymal stem cells (hBMMSCs). Conditions: 2.5 μM, 24 hours, vs DMSO. Here is the method:
as §1, §2

Another series relates to hESCs. In words: PI/Annexin V flow cytometry cell death assay, hESCs. Particulars: 24 hours; FIG. 2A: 1.25 μM digoxin, 2.5 μM lanatoside C. The format is cell-based, human. The method, then: For cell death assay, Propidium iodine/Annexin V assay was performed according to the manufacturer's instruction (Alexa Fluor® 488 Annexin V/Dead Cell Apoptosis Kit; Life Technologies). In brief, live cells were dissociated with trypsin and incubated with Annexin V antibody and PI working solution for 15 minutes. We added 400 μl 1× annexin binding buffer and analyzed the stained cells by FACSCanto™ (Becton Dickinson, Franklin Lakes, NJ, USA). For analyzing the phenotypic signature of MSCs we used a Stemflow™ hMSC analysis kit (BD Biosciences) and FACSCanto™. All flow data was analyzed by FACSDivam software (BD Biosciences) and FlowJo™ (FlowJo, LLC, Ashland, USA).

Series [2] has as its system cleaved PARP, caspase-3, caspase-7 in hBMMSCs. As to the kind of experiment: Western blot of apoptotic markers, hBMMSCs. The format is cell-based, human. Conditions: 2.5 μM, 12 hours. The method, then: RIPA buffer was used to harvest cell lysates (RIPA buffer: NaCl 150 mM, Tris pH 8.0 50 mM, EDTApH 8.0 5 mM, NP-40 1.0%, SDS 0.5%, sodium deoxycholate 0.1%). Western blot analyses were performed as previously described with different types of primary antibodies^29. The primary antibody includes anti-β-actin (A5441; Sigma), anti-Oct4 (sc-9081; Santa Cruz Biotechnology, Santa Cruz, CA, USA), anti-Nanog (3580; Cell Signaling Technology, Danvers, MA, USA), apoptosis antibody kit (9915; Cell Signaling Technology), ATP1A1 (3010; Cell Signaling Technology), and ATP1A2 (16836-1-AP; Proteintech™) were used. After reaction at 4° C. overnight, the blots were incubated with goat anti-mouse- or goat anti-rabbit antibody conjugated with horseradish peroxidase (Jackson ImmunoResearch Inc). The chemiluminescent substrate (WBKLS0500; Millipore, Darmstadt, Germany) was used to detect the blots. Fujifilm LAS-4000 (FUJIFILM, Tokyo, Japan) was used to take the images.
On the technique in general: A western blot detects proteins with antibodies after separation by electrophoresis.

The subject of series [3] is mixture of hESCs and GFP-overexpressing hBMMSCs. As to the kind of experiment: Kidney capsule transplantation of treated hESCs and hBMMSCs. Conditions: drug-treated hESCs and hBMMSCs under the kidney capsule, NSG mice, five weeks. The format is in vivo. The method, then:
The 293T cells were seeded with 10^6 cells in 6-well plates for the generation of the lentivirus. After 24 hours, the 293T cells were transfected with 1 μg of pLKO_AS3w.eGFP.bsd, 0.9 μg of pCMVR8.91, and 0.1 μg of pMD.G (National RNAi Core Facility, Taipei, Taiwan) via the TurboFect transfection reagent (Thermo Fisher Scientific). At 24 hours after the transfection, the medium was refreshed with the virus harvest medium, which contained HG-DMEM, 10% FBS and 1% BSA. The hBMMSCs were seeded in 6-well plates and later incubated with the lentivirus (multiplicity of infection=10) for one day. The cells were selected with 10 μg/ml blasticidin (Thermo Fisher Scientific) the following day. The GFP overexpressing hBMMSCs were then isolated using a cell sorter (FACS Aria™ II, BD Biosciences) and cultured in a medium containing 10 μg/ml blasticidin for the following experiments.
Mixtures of approximately 8×10^5 hESCs and 8×10^5 hBMMSCs were injected under the kidney capsules into 6-week-old male NSG mice. Five weeks after the transplantation, the animals were sacrificed, and the tissues were removed, fixed in 10% formalin, embedded in paraffin, stained with H&E or were subjected to IHC staining. The staining protocols were described in the materials and method section. Chicken anti-GFP (ab 13970, Abcam, Cambridge, MA, USA) antibody was used for the GFP overexpressing hBMMSCs IHC staining.

The structures appear in SMILES notation.

On to `C[C@H]1O[C@@H](O[C@H]2[C@@H](O)C[C@H](O[C@H]3[C@@H](O)C[C@H](O[C@H]4CC[C@@]5(C)[C@H](CC[C@@H]6[C@@H]5C[C@@H](O)[C@]5(C)[C@@H](C7=CC(=O)OC7)CC[C@]65O)C4)O[C@@H]3C)O[C@@H]2C)C[C@H](O)[C@@H]1O` [Digoxin, digoxin], for which, in the series on hESCs (H9), the “cytotoxic effect (LDH release) in hESCs” value was “significantly induced a cytotoxic effect” and the “LDH assay positive, hESCs” value is listed as “+++ (more than 70% positive cells)”. For the same molecule, in series [1], the “cytotoxic effect (LDH release) in hBMMSCs” value was “no cytotoxic effects”. Besides, in the series on hESCs, the “cell death (PI/Annexin V) in hESCs” value amounted to 70%. Also, the “cleaved form of apoptosis markers in hBMMSCs” value in series [2] is “no cleaved form of the apoptosis markers was detected”. The “tumor area of kidney tissue” value in series [3] is recorded as “significantly inhibited”.

With `CC(=O)O[C@H]1C[C@H](O[C@H]2[C@@H](O)C[C@H](O[C@H]3[C@@H](O)C[C@H](O[C@H]4CC[C@@]5(C)[C@H](CC[C@@H]6[C@@H]5C[C@@H](O)[C@]5(C)[C@@H](C7=CC(=O)OC7)CC[C@]65O)C4)O[C@@H]3C)O[C@@H]2C)O[C@H](C)[C@H]1O[C@@H]1O[C@H](CO)[C@@H](O)[C@H](O)[C@H]1O` [Lanatoside C, lanatoside C], in the series on hESCs (H9), the “cytotoxic effect (LDH release) in hESCs” value is given as “significantly induced a cytotoxic effect” and the “LDH assay positive, hESCs” value is “+++ (more than 70% positive cells)”. In addition, in series [1], the “cytotoxic effect (LDH release) in hBMMSCs” value was “no cytotoxic effects”. The “cell death (PI/Annexin V) in hESCs” value in the series with hESCs is recorded as 82%. For the same molecule, the “cleaved form of apoptosis markers in hBMMSCs” value in series [2] is recorded as “no cleaved form of the apoptosis markers was detected”. In series [3], the “tumor area of kidney tissue” value is reported as “significantly inhibited”.

The values above are taken from patent US12351819B2, “Method for removing undifferentiated pluripotent stem cells” (priority 2017, dated 2025).
